Test results from patent US11193110B2, “Methods to generate gastrointestinal epithelial tissue constructs” (The University of North Carolina at Chapel Hill, priority 2015, dated 2021).
Entries after “also recorded” stand apart in the source; their conditions may differ.

Columns and labels:
[1] = test system: primary intestinal epithelial cells; experiment: screen of dietary compounds and natural products on primary intestinal epithelial cells on collagen hydrogel (Hoechst 33342, EDU, alkaline phosphatase, Muc2); format: cell-based; conditions: 48 h incubation at Table 1 concentration; for S-phase or proliferating cells (EDU) / number of nuclei / cell number (Hoechst 33342): relative to control cells cultured in ENR-W; for enterocyte phenotype (alkaline phosphatase expression): p=0.01 (#42), p=0.02 (#31), p=0.002 (#51); for growth suppression: both number of nuclei and S-phase cells significantly lower than control: p<0.01 versus control cells in ENR-W
Text: FIG. 11. The impact of dietary compounds and natural products on primary colonic epithelium. The percentage of the collagen Daiszein (aglycone of daidzen) surface area occupied by cells (Hoechst 33342-positive) and the normalized EDU (A), alkaline phosphatase and mucin2-positive areas (B) were plotted against the compound number. The EDU, alkaline phosphatase and Muc2 areas were normalized to the total cell area. Alphabetic headings refer to categories described in Table 1.
Strategies to screen the vast number of dietary and metabolite compounds for their impact on proliferation, differentiation and other cell behaviors in the intestine have become increasingly important. However, major challenges exist due to a lack of technologies capable of faithfully duplicating the actions of these compounds on normal, healthy colonic cells. […] These attributes are central to intestinal barrier function and repair in the face of repeated chemical, physical, immune and infectious insults. Additionally controlled proliferation and terminal differentiation are key to avoiding an oncogenic state. Metabolites or natural products minimizing intestinal-cell proliferation without cell death, enhancing cell proliferation, or directing cells into the differentiated lineages are of profound interest for health maintenance and as therapeutics. The compounds represented a range of chemical classes with diverse or unknown impact on primary intestinal cells including fatty acids, bile acids, flavenoids, phytoestrogens, phenols, terpenoids, nitrates, and others. 75,000 cells were cultured on the collagen hydrogel with ENR-W (but with 10 ng/mL Wnt-3A) for 24 h to enable cells to attach to the surface, followed by incubation with the dietary/natural compounds for 48 h. The cells were then analyzed sequentially for four attributes: nuclei (Hoechst 33342), S-phase or proliferating cells (EDU), enterocyte phenotype (high alkaline phosphatase), and goblet cell marker (Muc2) (FIGS. 11A-B). […] In particular, glucosinolates (#68, #69, #70), responsible for the bitterness of cabbage and brussel sprouts, are toxic when consumed at high concentrations and this may in part be due to their direct effects on intestinal cells. […] These included the most of the phenols assayed such as gallic acid (#28), ellagic acid (#29), and punicalagin (#31) but also compounds such as valproate (#6) and […]-carotene (#58) all of which are recognized in the literature as inducing cell differentiation. […] Molecules promoting enterocyte formation may exert some of their beneficial effects by enhancing intestinal barrier and/or absorptive function and thus may be worthy of additional investigation. […] Matairesinol increases COX-2-derived prostaglandin E2 in Caco-2 cells and prostaglandin E2 has been characterized as inducing Goblet cell formation in the colon to increase mucous secretion. Screening primary colon epithelium directly links the matairesinol to increased mucous production and this may be through a prostaglandin E pathway.

Caco-2 cells = conditions: cited from earlier work
CYP1A1 = experiment: ethoxyresorufin O-deethylase (EROD) assay of CYP1A1 induction in the 2D colonic epithelial monolayer; format: cell-based, mouse; conditions: 0.1 μM TCDD
Method: FIG. 7. […] Top panel, day 0. Bottom panel, day 5. White dotted line indicates the perimeter of the insert. (B) SEM images of 2D monolayer. […] (C) Basal EROD activity and inducibility in 2D monolayer cells. 2D monolayer was cultured under ENR-WB for 5 days. […] CYP1A1 enzyme activity was determined using the ethoxyresorufin O-deethylase (EROD) assay, n=3.
Intestine is a vital organ that has many important functions (such as absorption, secretion, etc.). One function is metabolism through cytochrome P450 (CYP) enzyme activity that provides the principal, initial source of biotransformation/detoxification of ingested xenobiotics (Kaminsky, L. S. et al., Critical Reviews in Toxicology 21, 407-422 (1992)). Among the CYPs, CYP1A1 plays a physiological role in the degradation of estradiol into 2-OH-estradiol (Paine, M. F. et al., Drug Metabolism and Disposition 27, 360-364 (1999)). In vivo, CYP1A1 in rat intestines can be induced by feeding the rats with polycyclic aromatic hydrocarbons (PAHs) (Martignoni, M. et al., Chemico-Biological Interactions 151, 1-11 (2004)). […] The CYP1A1 enzyme activity was determined using an ethoxyresorufin O-deethylase (EROD) assay (Jones, S. P. et al., Ecotoxicology 23, 802-808 (2014)).

| Compound | S-phase or proliferating cells (EDU) [1] | number of nuclei / cell number (Hoechst 33342) [1] | other results |
| --- | --- | --- | --- |
| O=C1O[C@H]2[C@@H]3OC(=O)c4cc(O)c(O)c(O)c4-c4c(O)c(O)c5oc(=O)c6c(c(O)c(O)c7oc(=O)c4c5c76)-c4c(cc(O)c(O)c4O)C(=O)OC[C@H]3OC(O)[C@@H]2OC(=O)c2cc(O)c(O)c(O)c2-c2c1cc(O)c(O)c2O (mixture of isomers) [#31, Punicalagin] | suppressed proliferation | did not greatly diminish cell number; also recorded: without cell number reduction | enterocyte phenotype (alkaline phosphatase expression) ([1]; relative to control): directed cells towards the enterocyte lineage |
| COc1cc(-c2oc3cc(O)cc(O)c3c(=O)c2O)ccc1O [#21, Isorhamnetin] | increased cell numbers in S-phase |  |  |
| O=C(O)c1cc(O)c(O)c(O)c1 [#28, Gallic Acid] | suppressed proliferation | did not greatly diminish cell number |  |
| O=c1oc2c(O)c(O)cc3c(=O)oc4c(O)c(O)cc1c4c23 [#29, Ellagic Acid] | suppressed proliferation | did not greatly diminish cell number |  |
| CN[C@@H]1C[C@H]2O[C@@](C)([C@@H]1OC)n1c3ccccc3c3c4c(c5c6ccccc6n2c5c31)C(=O)NC4 [#32, Aglycones (Staurosporine), reference compound] | decreased | significantly increased |  |
| CC12CCC(CC1)C(C)(C)O2 [#42, Eucalyptol] | minimized cell proliferation |  | enterocyte phenotype (alkaline phosphatase expression) ([1]; relative to control): increasing alkaline phosphatase expression |
| C/C(=C\CO)CCC[C@H](C)CCC[C@H](C)CCCC(C)C [#51, Phytol] |  | without cell number reduction | enterocyte phenotype (alkaline phosphatase expression) ([1]; relative to control): directed cells towards the enterocyte lineage |
| CC1=C(/C=C/C(C)=C/C=C/C(C)=C/C=C/C=C(C)/C=C/C=C(C)/C=C/C2=C(C)CCCC2(C)C)C(C)(C)CCC1 [#58, β-carotene] | suppressed proliferation | did not greatly diminish cell number |  |
| S=C=NCc1ccccc1 [#68, Glucotropaeolin isothiocyanate] |  |  | growth suppression: both number of nuclei and S-phase cells significantly lower than control [1]: growth suppressive |
| O=S(=O)(O)ON=C(CCc1ccccc1)S[C@@H]1O[C@H](CO)[C@@H](O)[C@H](O)[C@H]1O [#69, Gluconasturtiin] |  |  | growth suppression: both number of nuclei and S-phase cells significantly lower than control [1]: growth suppressive |
| C[S+]([O-])CCCC/C(=N\OS(=O)(=O)O)S[C@@H]1O[C@H](CO)[C@@H](O)[C@H](O)[C@H]1O (some centres unmarked) [#70, Glucoraphanin] |  |  | growth suppression: both number of nuclei and S-phase cells significantly lower than control [1]: growth suppressive |
| COc1cc(C[C@H]2COC(=O)[C@@H]2Cc2ccc(O)c(OC)c2)ccc1O [#77, Matairesinol] |  |  | COX-2-derived prostaglandin E2 (Caco-2 cells): increases; goblet cell marker Muc2 or mucin expression ([1]; relative to control, p<0.01): significantly increased |
| Clc1cc2c(cc1Cl)Oc1cc(Cl)c(Cl)cc1O2 [TCDD, 2,3,7,8-tetrachlorodibenzo-p-dioxin] |  |  | CYP1A1 activity increased compared with the cells treated with toluene vehicle (CYP1A1; 2D monolayer cultured under ENR-WB 5 days, treated 20 hours, EROD assay): 40 fold; CYP1A1 enzyme activity induction by PAHs (CYP1A1; 2D monolayer treated 20 hours, 10 μM βNF, 1 μM BaP, toluene vehicle): effectively demonstrated |
